Assay results from patent publication US9101160B2, “Condiments with high-potency sweetener” (The Coca-Cola Company, priority 2005, dated 2015).

Type: physicochemical
Protocol: A solution of rebaudioside A ( >97% pure by HPLC ) was prepared in double distilled water (12.5 gm in 50 mL, 25% concentration) by stirring the mixture at 40° C. for 5 minutes. An amorphous form of rebaudioside A was formed by immediately using the clear solution for spray drying with the Lab-Plant spray drier SD-04 instrument (Lab-Plant Ltd., West Yorkshire, U.K.). The solution was fed through the feed pump into the nozzle atomizer which atomized it into a spray of droplets with the help of a constant flow of nitrogen/air. […] This dry powder (11-12 g, H2O 6.74%) was discharged continuously from the drying chamber and was collected in a bottle.

solubility in water at room temperature: > 35.0%
Substance: rebaudioside A [Form 4]
